# From patent publication US7544497B2, “Compositions for manipulating the lifespan and stress response of cells and organisms” (President and Fellows of Harvard College, priority 2003, dated 2009)
# Columns and labels:
# recombinant SIR-2.1 = molecular target: T1, recombinant SIR-2.1 (Caenorhabditis elegans, UniProt Q21921); assay: SIR-2.1 deacetylation assay (Fluor de Lys)
# T1 sequence (Q21921 1-607): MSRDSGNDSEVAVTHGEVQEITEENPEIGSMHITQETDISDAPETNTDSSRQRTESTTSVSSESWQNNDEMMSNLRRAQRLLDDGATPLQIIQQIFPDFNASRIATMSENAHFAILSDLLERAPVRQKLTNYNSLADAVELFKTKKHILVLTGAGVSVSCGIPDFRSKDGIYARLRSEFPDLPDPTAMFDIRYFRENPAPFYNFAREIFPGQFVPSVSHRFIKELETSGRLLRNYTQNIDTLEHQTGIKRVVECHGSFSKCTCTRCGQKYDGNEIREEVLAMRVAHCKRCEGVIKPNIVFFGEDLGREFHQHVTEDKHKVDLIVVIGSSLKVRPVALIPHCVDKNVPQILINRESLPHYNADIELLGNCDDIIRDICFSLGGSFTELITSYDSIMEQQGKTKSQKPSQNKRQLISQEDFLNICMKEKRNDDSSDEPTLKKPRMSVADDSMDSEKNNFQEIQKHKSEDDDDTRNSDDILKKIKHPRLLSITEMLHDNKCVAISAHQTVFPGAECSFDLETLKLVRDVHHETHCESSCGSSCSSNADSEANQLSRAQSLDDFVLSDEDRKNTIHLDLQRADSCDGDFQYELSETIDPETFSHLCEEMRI
# D. melanogaster = D. melanogaster adult survival assay; format: in vivo
# Procedure: Survival assays were conducted independently with adult D. melanogaster in two laboratories. In the first laboratory, all trials used an yw marked wild-type strain. […] Newly eclosed adults were placed in 1L demography cages with approximately 75 males and 75 females. Three to four replicate 1L demography cages were used for each treatment group in each trial. Every two days, dead flies were removed and scored, and food vials were replenished. Food vials contained cornmeal-sugar-yeast diet with SAF yeast as either 2% or 3% by weight. […] Fresh stock solutions and adult media were prepared weekly. In the second laboratory, lifespan trials were conducted with the wild type strain Canton-S, dSir2^4.5 and […], University of Oregon), […], Stockholm University, Sweden), and dSir2^KG00871 (Drosophila Stock Center, Bloomington, Ind.). Larvae for all tests were reared on standard cornmeal-sugar-yeast diet. […] In all trials, 20 males with 20 females were placed into each of 10 vials/treatment group. Every two days, flies were passed into new vials and dead flies were counted. […] Fresh stock solution and adult media was prepared weekly.
# recombinant GST-Sir2 = recombinant GST-Sir2 (Saccharomyces cerevisiae, UniProt P06700); assay: Sir2 deacetylation assay; format: biochemical, S. cerevisiae; settings: in vitro dose-response
# Chain of recombinant GST-Sir2 (P06700 whole entry): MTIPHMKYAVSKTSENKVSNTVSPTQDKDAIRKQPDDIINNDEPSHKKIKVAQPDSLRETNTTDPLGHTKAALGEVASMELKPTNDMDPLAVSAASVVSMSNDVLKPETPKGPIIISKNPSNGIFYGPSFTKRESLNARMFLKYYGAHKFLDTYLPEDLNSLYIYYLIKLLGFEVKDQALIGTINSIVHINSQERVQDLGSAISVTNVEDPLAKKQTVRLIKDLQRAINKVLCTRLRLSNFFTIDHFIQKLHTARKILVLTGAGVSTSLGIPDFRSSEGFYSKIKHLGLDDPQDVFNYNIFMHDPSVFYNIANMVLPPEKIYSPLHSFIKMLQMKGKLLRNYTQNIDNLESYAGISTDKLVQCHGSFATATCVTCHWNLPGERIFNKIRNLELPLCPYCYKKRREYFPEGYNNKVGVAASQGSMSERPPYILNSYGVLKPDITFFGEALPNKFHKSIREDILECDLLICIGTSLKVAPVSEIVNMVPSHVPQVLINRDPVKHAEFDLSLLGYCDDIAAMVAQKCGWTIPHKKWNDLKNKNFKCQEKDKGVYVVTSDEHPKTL
# Procedure: To investigate whether these compounds could stimulate sirtuins in vivo, we utilized S. cerevisiae, an organism in which the upstream regulators and downstream targets of Sir2 are relatively well understood.
# His6-tagged recombinant SIRT1 and GST-tagged recombinant Sir2 were prepared as previously described^26. From 0.1 to 1 μg of SIRT1 and 1.5 μg of Sir2 were used per deacetylation assay (in 50 μl total reaction) as previously described^26. SIRT1 assays and certain of those for Sir2 employed the p53-382 acetylated substrate (‘Fluor de Lys-SIRT1’, BIOMOL) rather than FdL.
# Themed compound libraries (BIOMOL) were used for primary and secondary screening. […] For water soluble compounds and negative controls, 1% v/v DMSO was added to the assay. […] HeLa cells were grown and the cellular deacetylation assays were performed and read, as above, but in full-volume 96-well microplates (Corning Costar 3595). […] Calculation of net fluorescence increases included subtraction of a blank value, which in the case of Sir2 was obtained by omitting the enzyme from the reaction and in the case of SIRT1 by adding an inhibitor (200 μM suramin or 1 mM nicotinamide) to the reaction prior to the acetylated substrate. […]
smiles,measurement,setting,value
"Oc1ccc(/C=C/c2cc(O)cc(O)c2)cc1 [Resveratrol, 3,5,4′-Trihydroxy-trans-stilbene]",effect on Km of SIR-2.1 for NAD+,"recombinant SIR-2.1; 100 μM resveratrol, 10 μM Fluor de Lys",lowered
same,"stimulation of deacetylation, SIR-2.1 (up to)","recombinant SIR-2.1; dose-dependent, 200 μM NAD+, 10 μM FdL",up to 2.5 fold
same,lifespan increase (up to),D. melanogaster; Canton-S/dSir2^KG0087,up to 17%
same,lifespan in flies lacking or severely decreased in dSir2,"D. melanogaster; dSir2^4.5/dSir2^5.26 or dSir2^17/dSir2^KG00871, 100 μM",failed to extend lifespan
same,longevity increase in flies homozygous for a hypomorphic dSir2 allele,D. melanogaster; dSir2^KG0087/dSir2^KG0087,small but statistically significant amount
same,longevity on restricted diet,D. melanogaster; restricted diet,neither resveratrol nor fisetin further increased longevity
same,lifespan extension (up to),"D. melanogaster; wild type, males and females, independent tests",up to 29%
same,concentrations at which inhibition of Sir2 was seen,recombinant GST-Sir2,greater than 100 μM
